Test results as given in ChEMBL document CHEMBL1201862, “PubChem BioAssay data set” (2004).
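Protocol summary: plate cells (96-well), add compound at 5 concentrations, incubate 48 h, interpolate endpoints linearly. GI50 = concentration required for 50% inhibition of growth.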 Active and inactive are the calls of the source. No stated cut-off is given here; in the data, active = GI50 up to about 1.1 µM and inactive = higher.

Assays:
Experiment in all cases: NCI tumour cell line growth inhibition, 48 h
ACHN = tested on: ACHN
SF-539 = tested on: SF-539
OVCAR-8 = tested on: OVCAR-8
NCI-H522 = tested on: NCI-H522
COLO 205 = tested on: COLO 205
HL-60 = tested on: HL-60
KM12 = tested on: KM12
SF-295 = tested on: SF-295
HOP-62 = tested on: HOP-62
SNB-75 = tested on: SNB-75
SN12C = tested on: SN12C
LOX IMVI = tested on: LOX IMVI
MOLT-4 = tested on: MOLT-4
A549 = tested on: A549
786-0 = tested on: 786-0
EKVX = tested on: EKVX

Measured: GI50

NCC1(N2CCOCC2)C2CCCC21CNc1ccccc1 (stereo not drawn)
inactive: ACHN > 100 µM | SF-539 > 100 µM | OVCAR-8 > 100 µM | NCI-H522 > 100 µM | COLO 205 > 100 µM | HL-60 53.8 µM | KM12 > 100 µM | SF-295 > 100 µM | HOP-62 > 100 µM | SNB-75 57.9 µM | SN12C > 100 µM | LOX IMVI > 100 µM | MOLT-4 92.3 µM | A549 > 100 µM | 786-0 > 100 µM

COC1=C(OC)CCC(/C(C#N)=C/c2ccc(OC)c(OC)c2)=C1
inactive: ACHN > 100 µM | SF-539 59.3 µM | OVCAR-8 > 100 µM | NCI-H522 21.4 µM | COLO 205 95.3 µM | KM12 > 100 µM | SF-295 15.9 µM | HOP-62 31.1 µM | SNB-75 16 µM | SN12C > 100 µM | LOX IMVI > 100 µM | MOLT-4 > 100 µM | A549 > 100 µM | 786-0 67.5 µM

CC1=NN(C(=O)CC(=O)Nc2ccccc2F)C(=O)C1/N=N/c1ccccc1[N+](=O)[O-] (stereo not drawn)
inactive: SF-539 58.7 µM | OVCAR-8 58.5 µM | NCI-H522 51.8 µM | EKVX 26.5 µM | COLO 205 > 100 µM | KM12 > 100 µM | SF-295 > 100 µM | HOP-62 > 100 µM | SNB-75 > 100 µM | SN12C > 100 µM | MOLT-4 73.8 µM | A549 64.7 µM | 786-0 > 100 µM

C=C(C#N)C1OCC2OC(C)(C)OC21 (stereo not drawn)
inactive: ACHN 20.7 µM | SF-539 16.1 µM | OVCAR-8 21.5 µM | EKVX 24.4 µM | COLO 205 15.4 µM | HL-60 18.2 µM | KM12 33.3 µM | SF-295 45.9 µM | HOP-62 > 100 µM | SNB-75 20.1 µM | SN12C 18.4 µM | LOX IMVI 15 µM | MOLT-4 15.7 µM | A549 36 µM | 786-0 20.2 µM

CC(=O)OC1COC(n2ccc3cc(Br)c([N+](=O)[O-])cc32)C(OC(C)=O)C1OC(C)=O (stereo not drawn)
inactive: ACHN 27.6 µM | SF-539 22.2 µM | OVCAR-8 22.4 µM | NCI-H522 > 10 µM | EKVX 39.4 µM | COLO 205 23.7 µM | KM12 34.2 µM | SF-295 20.9 µM | HOP-62 30.5 µM | SNB-75 23.1 µM | SN12C 30.8 µM | LOX IMVI 20.1 µM | MOLT-4 > 10 µM | A549 27.8 µM | 786-0 33.3 µM

CCN(CC)c1c(C)nnn1C1OC(COC(C)=O)C(OC(C)=O)C(OC(C)=O)C1OC(C)=O (stereo not drawn)
inactive: ACHN > 100 µM | SF-539 > 100 µM | OVCAR-8 > 100 µM | NCI-H522 > 100 µM | EKVX > 100 µM | COLO 205 > 100 µM | HL-60 > 100 µM | KM12 > 100 µM | SF-295 > 100 µM | HOP-62 > 100 µM | SNB-75 > 100 µM | SN12C > 100 µM | MOLT-4 > 100 µM | A549 > 100 µM | 786-0 > 100 µM

C=C1CN2CCc3c([nH]c4ccccc34)C2CC1CC(=O)N(C)C (stereo not drawn)
inactive: ACHN > 309 µM | SF-539 > 309 µM | OVCAR-8 > 309 µM | NCI-H522 > 309 µM | EKVX > 309 µM | COLO 205 > 309 µM | HL-60 > 309 µM | KM12 > 309 µM | SF-295 > 309 µM | HOP-62 > 309 µM | SN12C > 309 µM | LOX IMVI > 309 µM | MOLT-4 > 309 µM | A549 > 309 µM | 786-0 > 309 µM

C[C@H]1C[C@@H]2[C@H]([C@@H](O)C[C@@]3(C)[C@H]2CC[C@]3(O)C(=O)CO)[C@@]2(C)C=CC(=O)C=C12 [METHYLPREDNISOLONE]
inactive: ACHN > 100 µM | OVCAR-8 > 100 µM | NCI-H522 > 100 µM | COLO 205 > 100 µM | HL-60 > 100 µM | KM12 > 100 µM | HOP-62 > 100 µM | SN12C 46.6 µM | LOX IMVI > 100 µM | MOLT-4 > 100 µM | A549 > 100 µM | 786-0 > 100 µM

CC(=O)/C(=C\c1ccco1)C(=O)Nc1ccccc1
inactive: ACHN > 100 µM | SF-539 > 100 µM | OVCAR-8 > 100 µM | NCI-H522 > 100 µM | EKVX > 100 µM | HL-60 > 100 µM | KM12 > 100 µM | SF-295 > 100 µM | HOP-62 > 100 µM | SN12C > 100 µM | LOX IMVI > 100 µM | MOLT-4 > 100 µM | A549 > 100 µM | 786-0 > 100 µM

CSC1=Nc2ccccc2N=C(c2ccc(Cl)cc2)C1
inactive: ACHN 36.6 µM | SF-539 40 µM | OVCAR-8 52.7 µM | NCI-H522 43.1 µM | EKVX 20.5 µM | COLO 205 59.6 µM | HL-60 35.3 µM | KM12 36.8 µM | SF-295 43.9 µM | HOP-62 > 100 µM | SN12C 40.5 µM | LOX IMVI 27.1 µM | MOLT-4 21.7 µM | A549 43.8 µM | 786-0 30.3 µM
